From PubChem BioAssay AID743163 (Broad Institute, 2013)
Active and inactive are the calls of the source. No rule for the calls is given here.

System: Mycobacterium tuberculosis starved, CFU count by imaging
Assay: Mycobacterium tuberculosis starved, CFU count by imaging at 64 µM (AID 743163)
Conditions: stronger effect = lower value

## CSc1nsc(SCc2ccc(C(=O)Nc3cccc(C)c3)cc2)n1
CFU at 64 uM, at 64 µM
  CFU: 12600 CFU
At 10 µM
  CFU: 1.1e+06 CFU

## COc1ccc(CCNc2cc(-c3ccccc3)nc3ncnn23)cc1
CFU at 64 uM, at 64 µM
  CFU: 2.5e+06 CFU
At 10 µM
  CFU: 2.65e+06 CFU

## CCOC(=O)c1cc(COc2c(Cl)cccc2Cl)on1
CFU at 64 uM, at 64 µM
  CFU: 1.11e+06 CFU
At 10 µM
  CFU: 3.08e+07 CFU

## COC(=O)C(C)Oc1ccc2cc(-c3ccccc3)c(=O)oc2c1 (stereo not drawn)
CFU at 64 uM, at 64 µM
  CFU: 4.57e+06 CFU
At 10 µM
  CFU: 3.2e+07 CFU (inactive)

## COc1ccc(CNC(=O)Nc2ncc([N+](=O)[O-])s2)cc1
CFU at 64 uM, at 64 µM
  CFU: 204000 CFU
At 10 µM
  CFU: 2.15e+06 CFU

## Cn1c(NC(=O)c2ccccc2)nc2ccccc21
CFU at 64 uM, at 64 µM
  CFU: 0 CFU
At 10 µM
  CFU: 0 CFU

## c1ccc(-c2n[nH]c(-c3ccccn3)n2)nc1
CFU at 64 uM, at 64 µM
  CFU: 1.91e+06 CFU
At 10 µM
  CFU: 6.09e+06 CFU

## CCOc1ccc(OC(=O)c2ccc3c(=O)n4c(nc3c2)CCC4)cc1
CFU at 64 uM, at 64 µM
  CFU: 3.25e+07 CFU
At 10 µM
  CFU: 3.2e+07 CFU (inactive)

## CCC(C)n1nnc2c(=O)oc3ccccc3c21 (stereo not drawn)
CFU at 64 uM, at 64 µM
  CFU: 3.22e+06 CFU
At 10 µM
  CFU: 4.71e+06 CFU
